The text below walks through data of patent US11547677B2, “Transmucosal delivery system for idebenone” (LTS LOHMANN THERAPIE-SYSTEME AG, priority 2017, dated 2023).

For series [1] the following is noted: oral administration; cited from earlier work.
Series [2] is described as follows: Saturation concentration of idebenone in the inner, hydrophobic, phase (HPLC of supernatant). Format: physicochemical. The note with it: in composition of the 2nd table (vitamin E, Polysorbate 80, methyl salicylate, eucalyptol, tributyl citrate, Brij S2). As to the method: Idebenone is added in excess to the inner, hydrophobic, phase, so that even after relatively long stirring solid dregs of active ingredient are still present. Then the dregs are removed by centrifuging. The resulting supernatant contains idebenone in its saturation concentration. This is determined by analysis for example by means of HPLC. The saturation concentration of idebenone for an exemplified composition according to the invention was determined as follows. [table]

For series [3] the following is noted: n-octanol/water; cited from earlier work.

Counter-ions that a name gives are not always drawn.

Consider `COC1=C(OC)C(=O)C(CCCCCCCCCCO)=C(C)C1=O` [idebenone, 2-(10-hydroxydecyl)-5,6-dimethoxy-3-methyl-cyclohexa-2,5-diene-1,4-dione], for which the “idebenone metabolised in the first-pass metabolism” value in series [1] is given as “more than 98%”. The saturation concentration in series [2] (4° C.) stood at 103 g/L; in series [2] (room temperature), 145 g/L.
Regarding `COC(=O)c1ccccc1O` [MS, methyl salicylate], the LogP result in series [3] was “LogP = 2.24”.
Take `CC12CCC(CC1)C(C)(C)O2` [EUC, eucalyptol]: the LogP result in series [3] is recorded as “LogP = 2.8”.
As for `CCCCOC(=O)CC(O)(CC(=O)OCCCC)C(=O)OCCCC` [TBC, tributyl citrate], the LogP result in series [3] is listed as “LogP = 4.7”.
